Tests used:
[1] = biological target: T1, Dual specificity tyrosine-phosphorylation-regulated kinase 4 (Homo sapiens, UniProt Q9NR20)
T1 sequence (Q9NR20 whole entry): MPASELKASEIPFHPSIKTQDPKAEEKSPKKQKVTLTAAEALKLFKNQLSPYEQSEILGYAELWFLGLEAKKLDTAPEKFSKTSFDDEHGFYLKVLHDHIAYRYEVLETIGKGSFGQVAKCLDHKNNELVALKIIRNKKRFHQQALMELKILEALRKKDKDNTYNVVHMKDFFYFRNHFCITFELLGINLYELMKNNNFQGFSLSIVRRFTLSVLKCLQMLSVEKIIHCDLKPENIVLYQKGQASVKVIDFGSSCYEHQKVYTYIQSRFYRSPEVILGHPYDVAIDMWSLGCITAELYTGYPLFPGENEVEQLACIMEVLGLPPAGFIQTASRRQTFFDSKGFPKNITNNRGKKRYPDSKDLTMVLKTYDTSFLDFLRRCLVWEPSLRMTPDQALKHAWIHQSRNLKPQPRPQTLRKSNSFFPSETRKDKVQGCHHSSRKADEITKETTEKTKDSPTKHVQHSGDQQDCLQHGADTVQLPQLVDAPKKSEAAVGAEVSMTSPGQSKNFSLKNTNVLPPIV

[2] = biological target: Glycogen synthase kinase-3 beta (Homo sapiens, UniProt P49841); assay type: cell-based, Sf9
[3] = biological target: Dual specificity protein kinase CLK2 (Homo sapiens, UniProt P49760)
[4] = biological target: Dual specificity protein kinase CLK4 (Homo sapiens, UniProt Q9HAZ1)
[5] = biological target: Dual specificity protein kinase CLK3 (Homo sapiens, UniProt P49761); assay type: cell-based, Sf9
[6] = biological target: Casein kinase I isoform epsilon (Homo sapiens, UniProt P49674)
[7] = biological target: T2, Dual specificity tyrosine-phosphorylation-regulated kinase 3 (Homo sapiens, UniProt O43781)
T2 sequence (O43781 whole entry): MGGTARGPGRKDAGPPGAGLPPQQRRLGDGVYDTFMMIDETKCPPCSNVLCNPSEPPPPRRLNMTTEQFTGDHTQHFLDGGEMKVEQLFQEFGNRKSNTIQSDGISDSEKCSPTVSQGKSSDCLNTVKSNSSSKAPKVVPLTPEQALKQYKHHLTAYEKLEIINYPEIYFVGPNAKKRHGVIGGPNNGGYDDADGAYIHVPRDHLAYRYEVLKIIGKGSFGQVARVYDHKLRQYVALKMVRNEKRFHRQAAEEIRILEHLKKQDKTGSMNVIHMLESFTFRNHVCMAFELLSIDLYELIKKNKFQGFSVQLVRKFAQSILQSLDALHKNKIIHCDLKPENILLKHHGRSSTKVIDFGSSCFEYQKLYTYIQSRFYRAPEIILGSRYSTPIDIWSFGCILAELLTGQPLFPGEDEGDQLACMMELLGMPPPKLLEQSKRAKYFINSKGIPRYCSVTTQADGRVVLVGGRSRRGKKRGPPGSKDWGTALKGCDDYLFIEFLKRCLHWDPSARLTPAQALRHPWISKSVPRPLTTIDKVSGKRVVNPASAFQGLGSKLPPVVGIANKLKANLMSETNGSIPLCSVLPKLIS

[8] = biological target: Cyclin-dependent kinase 5/CDK5 activator 1 (Homo sapiens, UniProt Q00535); assay type: cell-based, Sf9
[9] = biological target: T3, Dual specificity tyrosine-phosphorylation-regulated kinase 2 (Homo sapiens, UniProt Q92630)
T3 sequence (Q92630 whole entry): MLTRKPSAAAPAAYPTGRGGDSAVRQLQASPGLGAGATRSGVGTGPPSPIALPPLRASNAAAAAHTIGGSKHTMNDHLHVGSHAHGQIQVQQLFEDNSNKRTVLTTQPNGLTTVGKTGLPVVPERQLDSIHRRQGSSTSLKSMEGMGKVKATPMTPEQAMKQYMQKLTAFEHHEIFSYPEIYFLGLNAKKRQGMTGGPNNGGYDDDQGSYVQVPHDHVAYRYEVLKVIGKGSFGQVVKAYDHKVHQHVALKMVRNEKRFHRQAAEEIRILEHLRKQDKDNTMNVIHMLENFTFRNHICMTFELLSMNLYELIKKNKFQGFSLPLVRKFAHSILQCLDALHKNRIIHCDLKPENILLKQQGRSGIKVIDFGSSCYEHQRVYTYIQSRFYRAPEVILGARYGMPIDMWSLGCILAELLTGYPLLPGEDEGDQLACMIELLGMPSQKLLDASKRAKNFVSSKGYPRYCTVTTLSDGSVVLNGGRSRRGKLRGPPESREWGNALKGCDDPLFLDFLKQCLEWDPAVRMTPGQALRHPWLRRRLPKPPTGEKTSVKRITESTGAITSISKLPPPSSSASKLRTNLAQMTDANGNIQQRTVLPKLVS

Chain of Dual specificity protein kinase CLK3 (P49761 whole entry, canonical isoform): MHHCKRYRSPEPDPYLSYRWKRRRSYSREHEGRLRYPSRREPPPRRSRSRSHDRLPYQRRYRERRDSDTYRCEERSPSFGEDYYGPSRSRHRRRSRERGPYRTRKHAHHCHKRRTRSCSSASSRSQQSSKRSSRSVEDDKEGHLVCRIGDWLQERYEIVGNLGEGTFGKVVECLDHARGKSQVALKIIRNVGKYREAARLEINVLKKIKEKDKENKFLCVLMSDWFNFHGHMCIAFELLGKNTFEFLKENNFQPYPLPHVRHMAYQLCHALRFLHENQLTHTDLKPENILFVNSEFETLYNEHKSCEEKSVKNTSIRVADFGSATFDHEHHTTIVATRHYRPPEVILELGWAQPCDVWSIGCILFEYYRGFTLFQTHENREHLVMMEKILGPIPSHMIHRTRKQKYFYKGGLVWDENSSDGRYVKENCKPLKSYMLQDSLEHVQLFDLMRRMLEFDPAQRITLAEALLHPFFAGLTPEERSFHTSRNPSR
Chain of Casein kinase I isoform epsilon (P49674 whole entry, canonical isoform): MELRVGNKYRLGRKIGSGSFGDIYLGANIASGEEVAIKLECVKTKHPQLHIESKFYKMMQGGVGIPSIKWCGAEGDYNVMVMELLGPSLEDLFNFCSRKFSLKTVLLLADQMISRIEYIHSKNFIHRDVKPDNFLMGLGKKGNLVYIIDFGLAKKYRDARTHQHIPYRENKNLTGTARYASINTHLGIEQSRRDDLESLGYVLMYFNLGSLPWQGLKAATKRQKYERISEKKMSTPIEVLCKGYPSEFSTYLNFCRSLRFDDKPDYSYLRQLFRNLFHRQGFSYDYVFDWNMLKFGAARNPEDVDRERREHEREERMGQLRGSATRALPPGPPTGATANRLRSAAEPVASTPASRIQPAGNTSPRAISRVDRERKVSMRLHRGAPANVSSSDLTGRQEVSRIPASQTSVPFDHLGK
Chain of Cyclin-dependent kinase 5/CDK5 activator 1 (Q00535 whole entry): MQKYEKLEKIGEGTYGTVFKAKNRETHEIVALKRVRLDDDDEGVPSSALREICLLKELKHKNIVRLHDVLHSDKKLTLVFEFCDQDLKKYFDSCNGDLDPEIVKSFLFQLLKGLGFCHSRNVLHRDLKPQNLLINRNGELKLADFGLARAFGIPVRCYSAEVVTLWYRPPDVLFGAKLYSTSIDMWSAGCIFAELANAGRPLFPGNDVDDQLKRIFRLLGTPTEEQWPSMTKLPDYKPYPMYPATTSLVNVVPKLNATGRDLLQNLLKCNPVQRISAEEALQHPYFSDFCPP
Chain of Cyclin-dependent kinase 5/CDK5 activator 1 (Q15078 whole entry, further chain): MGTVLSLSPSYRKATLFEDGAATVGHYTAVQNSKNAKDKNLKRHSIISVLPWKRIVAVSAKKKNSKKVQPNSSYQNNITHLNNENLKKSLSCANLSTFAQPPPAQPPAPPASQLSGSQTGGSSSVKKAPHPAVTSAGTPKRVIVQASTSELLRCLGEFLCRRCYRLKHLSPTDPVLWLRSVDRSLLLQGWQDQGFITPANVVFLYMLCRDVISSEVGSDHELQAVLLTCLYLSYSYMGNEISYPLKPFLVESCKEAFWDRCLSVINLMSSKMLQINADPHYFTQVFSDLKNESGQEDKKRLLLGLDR
Chain of Dual specificity protein kinase CLK2 (P49760 whole entry): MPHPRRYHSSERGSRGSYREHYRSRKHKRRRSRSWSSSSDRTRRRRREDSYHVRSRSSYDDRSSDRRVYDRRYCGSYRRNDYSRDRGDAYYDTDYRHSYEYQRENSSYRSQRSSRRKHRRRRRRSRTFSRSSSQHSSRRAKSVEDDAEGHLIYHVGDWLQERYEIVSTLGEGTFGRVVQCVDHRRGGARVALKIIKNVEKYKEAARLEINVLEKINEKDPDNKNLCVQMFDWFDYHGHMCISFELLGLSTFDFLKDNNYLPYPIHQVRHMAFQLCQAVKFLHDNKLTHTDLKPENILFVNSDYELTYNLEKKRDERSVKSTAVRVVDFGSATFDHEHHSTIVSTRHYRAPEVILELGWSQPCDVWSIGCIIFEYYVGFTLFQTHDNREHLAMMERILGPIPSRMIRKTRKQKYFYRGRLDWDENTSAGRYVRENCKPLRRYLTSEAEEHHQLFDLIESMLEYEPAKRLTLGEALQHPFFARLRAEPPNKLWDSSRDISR
Chain of Dual specificity protein kinase CLK4 (Q9HAZ1 whole entry): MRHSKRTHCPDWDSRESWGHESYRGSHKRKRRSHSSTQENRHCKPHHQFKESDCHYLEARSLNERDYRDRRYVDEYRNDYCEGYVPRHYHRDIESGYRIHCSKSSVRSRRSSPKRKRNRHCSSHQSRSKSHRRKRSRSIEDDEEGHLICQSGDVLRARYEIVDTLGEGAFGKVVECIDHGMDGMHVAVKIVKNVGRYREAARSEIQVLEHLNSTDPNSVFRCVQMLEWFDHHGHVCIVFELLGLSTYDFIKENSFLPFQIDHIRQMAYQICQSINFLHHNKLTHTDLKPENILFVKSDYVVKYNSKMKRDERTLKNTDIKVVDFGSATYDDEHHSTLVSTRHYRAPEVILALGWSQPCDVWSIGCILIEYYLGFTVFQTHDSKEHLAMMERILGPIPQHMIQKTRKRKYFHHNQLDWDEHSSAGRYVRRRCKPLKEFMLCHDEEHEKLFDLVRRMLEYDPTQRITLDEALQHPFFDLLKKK
Chain of Glycogen synthase kinase-3 beta (P49841 whole entry): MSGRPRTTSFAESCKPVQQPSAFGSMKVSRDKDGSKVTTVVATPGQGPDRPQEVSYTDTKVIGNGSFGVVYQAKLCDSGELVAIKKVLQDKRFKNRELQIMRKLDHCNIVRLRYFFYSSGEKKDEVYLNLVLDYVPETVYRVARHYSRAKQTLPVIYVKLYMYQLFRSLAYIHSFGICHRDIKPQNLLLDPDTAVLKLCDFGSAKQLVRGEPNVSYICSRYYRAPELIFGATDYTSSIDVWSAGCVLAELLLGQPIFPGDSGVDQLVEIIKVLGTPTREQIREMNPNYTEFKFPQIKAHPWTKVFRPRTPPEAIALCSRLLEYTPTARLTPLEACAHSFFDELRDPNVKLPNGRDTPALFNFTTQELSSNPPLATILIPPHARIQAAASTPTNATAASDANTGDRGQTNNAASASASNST

SMILES | IC50 [1] [nM] | IC50 [2] [nM] | IC50 [3] [nM] | IC50 [4] [nM] | IC50 [5] [nM] | IC50 [6] [nM] | IC50 [7] [nM] | IC50 [8] [nM] | IC50 [9] [nM]
O=C1NC(NC2CCNC2=O)=N/C1=C\c1ccc2ncsc2c1 (racemic) | 3120 | > 10000 | 1030 | 33 | 1150 | > 10000 | 2560 | > 10000 | 1660
CN1CCCC(NC2=N/C(=C\c3ccc4ncsc4c3)C(=O)N2)C1=O (racemic) | 6080 | > 10000 | 416 | 27 | 2810 | > 10000 | 2980 | > 10000 | 3300
Cn1ncc2cccc(NC3=N/C(=C\c4ccc5ncsc5c4)C(=O)N3)c21 | 4820 | 3680 | 698 | 73 | 1550 | > 10000 | 4050 | > 10000 | 5630
CC1(C)C2CCC1(C)[C@H](NC1=N/C(=C\c3ccc4ncsc4c3)C(=O)N1)C2 (stereo partly drawn) | 221 | > 10000 | 17 | 11 | 738 | > 10000 | 223 | > 10000 | 176
CC(=O)N1CCc2ccc(NC3=N/C(=C\c4ccc5ncsc5c4)C(=O)N3)cc21 | 705 | 1830 | 869 | 21 | 2240 | > 10000 | 443 | > 10000 | 257

Further lines, results first:

IC50 [1] [nM] | IC50 [2] [nM] | IC50 [3] [nM] | IC50 [4] [nM] | IC50 [5] [nM] | IC50 [6] [nM] | IC50 [7] [nM] | IC50 [8] [nM] | IC50 [9] [nM] | SMILES
2560 | > 10000 | 211 | 147 | 2740 | > 10000 | 2450 | > 10000 | 9720 | CC(C)[C@@H]1CC[C@@H](C)C[C@H]1NC1=N/C(=C\c2ccc3ncsc3c2)C(=O)N1
3260 | 8180 | 469 | 22 | 1160 | > 10000 | 346 | > 10000 | 664 | O=C1CC[C@H](NC2=N/C(=C\c3ccc4ncsc4c3)C(=O)N2)CN1
7290 | > 10000 | 1320 | 35 | 1680 | > 10000 | 2800 | > 10000 | 2090 | O=C1NC(NC2CCCNC2=O)=N/C1=C\c1ccc2ncsc2c1 (racemic)
7040 | > 10000 | 771 | 180 | 1230 | > 10000 | 887 | > 10000 | 4760 | CN1CCCC(NC2=N/C(=C\c3ccc4ncsc4c3)C(=O)N2)C1 (racemic)
> 10000 | > 10000 | 14200 | 3130 | > 10000 | > 10000 | > 10000 | > 10000 | > 10000 | CCCCCCc1ccc(NC2=N/C(=C\c3ccc4ncsc4c3)C(=O)N2)cc1
1940 | 2150 | 86 | 13 | 280 | > 10000 | 1640 | 6110 | 1210 | O=C1NC(NCc2ccccc2)=N/C1=C\c1ccc2ncsc2c1
> 10000 | > 10000 | 1340 | 20 | > 10000 | > 10000 | 324 | > 10000 | 666 | Cc1nc2ccc(/C=C3\N=C(NC45CC6CC(CC(C6)C4)C5)NC3=O)cc2s1

Source: ChEMBL document CHEMBL5360622, “Leucettinibs, a Class of DYRK/CLK Kinase Inhibitors Inspired by the Marine Sponge Natural Product Leucettamine B” (J Med Chem, 2023)
